The NIST ThermoML archive (doi:10.1016/j.jct.2015.12.025)

Tests used:
[1] = refractive index (Na D-line) (dimensionless); xn = mol fraction of the nth substance listed; details: 102 kPa, Liquid, Standard Abbe refractometry
[2] = xn = mol fraction of the nth substance listed; details: 102 kPa, Liquid, Vibrating tube method

C[Si]1(CCC(F)(F)F)O[Si](C)(CCC(F)(F)F)O[Si](C)(CCC(F)(F)F)O1 (stereo not given) + CCc1ccccc1
Details	mass density, 308.15 K [kg/m3]	mass density, 313.15 K [kg/m3]	mass density, 318.15 K [kg/m3]	mass density, 323.15 K [kg/m3]	refractive index, 308.15 K	refractive index, 313.15 K	refractive index, 318.15 K	refractive index, 323.15 K
[1], x1 = 0.05	–	–	–	–	1.46829	1.46563	1.46295	1.46034
[1], x1 = 0.1	–	–	–	–	1.4527	1.45013	1.44755	1.445
[1], x1 = 0.15	–	–	–	–	1.43984	1.43731	1.43479	1.43233
[1], x1 = 0.1967	–	–	–	–	1.42972	1.42722	1.42478	1.42233
[1], x1 = 0.25	–	–	–	–	1.41987	1.41742	1.41503	1.41266
[1], x1 = 0.2998	–	–	–	–	1.41202	1.40962	1.40725	1.40493
[1], x1 = 0.35	–	–	–	–	1.40515	1.40278	1.40047	1.39817
[1], x1 = 0.377	–	–	–	–	1.40179	1.39946	1.39713	1.39485
[1], x1 = 0.4437	–	–	–	–	1.39447	1.39219	1.38991	1.38768
[1], x1 = 0.5001	–	–	–	–	1.38911	1.38686	1.38464	1.38243
[1], x1 = 0.5492	–	–	–	–	1.38496	1.38275	1.38053	1.37836
[1], x1 = 0.5994	–	–	–	–	1.3811	1.37891	1.37672	1.37458
[1], x1 = 0.6499	–	–	–	–	1.3776	1.37545	1.37326	1.37112
[1], x1 = 0.6997	–	–	–	–	1.37445	1.37234	1.37017	1.36807
[1], x1 = 0.7502	–	–	–	–	1.37152	1.36941	1.36729	1.36521
[1], x1 = 0.7999	–	–	–	–	1.36888	1.36677	1.36471	1.36262
[1], x1 = 0.8498	–	–	–	–	1.36642	1.36437	1.36228	1.36025
[1], x1 = 0.9002	–	–	–	–	1.36413	1.3621	1.36007	1.35801
[1], x1 = 0.9498	–	–	–	–	1.36206	1.36004	1.35799	1.356
[1], x1 = 1	–	–	–	–	1.36011	1.35808	1.35608	1.35407
[2], x1 = 0.05	905.01	900.4	895.69	890.85	–	–	–	–
[2], x1 = 0.1	947.97	943.16	938.39	933.5	–	–	–	–
[2], x1 = 0.15	984.47	979.55	974.46	969.52	–	–	–	–
[2], x1 = 0.1967	1013.95	1008.92	1003.57	998.43	–	–	–	–
[2], x1 = 0.25	1043.11	1037.94	1032.55	1027.19	–	–	–	–
[2], x1 = 0.2998	1066.87	1061.66	1056.21	1050.74	–	–	–	–
[2], x1 = 0.35	1088.17	1082.82	1077.22	1071.74	–	–	–	–
[2], x1 = 0.377	1098.7	1093.23	1087.75	1082.06	–	–	–	–
[2], x1 = 0.4437	1121.97	1116.36	1110.93	1104.98	–	–	–	–
[2], x1 = 0.5001	1139.32	1133.58	1127.97	1121.88	–	–	–	–
[2], x1 = 0.5492	1152.93	1147.02	1141.17	1135.21	–	–	–	–
[2], x1 = 0.5994	1165.69	1159.63	1153.7	1147.6	–	–	–	–
[2], x1 = 0.6499	1177.11	1171.2	1165.14	1158.94	–	–	–	–
[2], x1 = 0.6997	1187.73	1181.59	1175.49	1169.24	–	–	–	–
[2], x1 = 0.7502	1197.39	1191.42	1185.03	1178.51	–	–	–	–
[2], x1 = 0.7999	1206.57	1200.31	1193.75	1187.44	–	–	–	–
[2], x1 = 0.8498	1214.84	1208.54	1202.09	1195.57	–	–	–	–
[2], x1 = 0.9002	1222.62	1216.17	1209.67	1203.21	–	–	–	–
[2], x1 = 0.9498	1229.79	1223.31	1216.79	1210.24	–	–	–	–
[2], x1 = 1	1236.63	1230.05	1223.55	1216.99	–	–	–	–

C[Si]1(CCC(F)(F)F)O[Si](C)(CCC(F)(F)F)O[Si](C)(CCC(F)(F)F)O1 (stereo not given) + COc1ccccc1
Details	mass density, 308.15 K [kg/m3]	mass density, 313.15 K [kg/m3]	mass density, 318.15 K [kg/m3]	mass density, 323.15 K [kg/m3]	refractive index, 308.15 K	refractive index, 313.15 K	refractive index, 318.15 K	refractive index, 323.15 K
[1], x1 = 0.0502	–	–	–	–	1.48464	1.48208	1.47955	1.47695
[1], x1 = 0.0999	–	–	–	–	1.4658	1.4633	1.46089	1.45834
[1], x1 = 0.15	–	–	–	–	1.45042	1.44796	1.44565	1.44317
[1], x1 = 0.1999	–	–	–	–	1.43774	1.43532	1.43308	1.43068
[1], x1 = 0.2501	–	–	–	–	1.42699	1.42468	1.42242	1.42006
[1], x1 = 0.2998	–	–	–	–	1.41796	1.41563	1.41345	1.41113
[1], x1 = 0.3498	–	–	–	–	1.41011	1.40783	1.40566	1.40338
[1], x1 = 0.4001	–	–	–	–	1.40327	1.401	1.39886	1.39659
[1], x1 = 0.4497	–	–	–	–	1.39729	1.39509	1.39295	1.39069
[1], x1 = 0.4997	–	–	–	–	1.39198	1.3898	1.38766	1.38549
[1], x1 = 0.5453	–	–	–	–	1.38765	1.38551	1.38335	1.3812
[1], x1 = 0.6001	–	–	–	–	1.38297	1.38081	1.37871	1.37655
[1], x1 = 0.6498	–	–	–	–	1.37914	1.37703	1.37495	1.37279
[1], x1 = 0.6995	–	–	–	–	1.3757	1.37358	1.37151	1.36941
[1], x1 = 0.7502	–	–	–	–	1.3725	1.37039	1.36832	1.36625
[1], x1 = 0.8	–	–	–	–	1.3696	1.36751	1.36547	1.36338
[1], x1 = 0.8491	–	–	–	–	1.36697	1.36492	1.36288	1.36086
[1], x1 = 0.8997	–	–	–	–	1.3645	1.36245	1.36042	1.35837
[1], x1 = 0.9497	–	–	–	–	1.36221	1.36019	1.35818	1.35616
[1], x1 = 1	–	–	–	–	1.36011	1.35808	1.35609	1.35407
[2], x1 = 0.0502	1018.9	1013.91	1008.94	1003.9	–	–	–	–
[2], x1 = 0.0999	1050.1	1044.97	1039.74	1034.53	–	–	–	–
[2], x1 = 0.15	1076.1	1070.73	1065.35	1059.95	–	–	–	–
[2], x1 = 0.1999	1097.79	1092.31	1086.77	1081.24	–	–	–	–
[2], x1 = 0.2501	1116.38	1110.76	1105.11	1099.47	–	–	–	–
[2], x1 = 0.2998	1132.25	1126.52	1120.84	1115.01	–	–	–	–
[2], x1 = 0.3498	1146.05	1140.29	1134.47	1128.62	–	–	–	–
[2], x1 = 0.4001	1158.32	1152.45	1146.5	1140.45	–	–	–	–
[2], x1 = 0.4497	1169.15	1163.11	1156.93	1151	–	–	–	–
[2], x1 = 0.4997	1178.65	1172.56	1166.57	1160.21	–	–	–	–
[2], x1 = 0.5453	1186.4	1180.31	1174.14	1168.04	–	–	–	–
[2], x1 = 0.6001	1194.94	1188.71	1182.53	1176.37	–	–	–	–
[2], x1 = 0.6498	1201.9	1195.72	1189.43	1183.1	–	–	–	–
[2], x1 = 0.6995	1208.15	1201.84	1195.66	1189.14	–	–	–	–
[2], x1 = 0.7502	1214.01	1207.72	1201.45	1194.99	–	–	–	–
[2], x1 = 0.8	1219.27	1212.9	1206.52	1200.09	–	–	–	–
[2], x1 = 0.8491	1223.97	1217.59	1211.19	1204.79	–	–	–	–
[2], x1 = 0.8997	1228.56	1222.13	1215.62	1209.23	–	–	–	–
[2], x1 = 0.9497	1232.67	1226.23	1219.73	1213.21	–	–	–	–
[2], x1 = 1	1236.63	1230.05	1223.55	1216.99	–	–	–	–
